This is an account of results in patent US20250171431A1, “HETEROCYCLIC INHIBITORS OF IGF-1R FOR TREATMENT OF DISEASE” (HORIZON THERAPEUTICS IRELAND DAC, priority 2023, published 2025).

In general, IC50 refers to the concentration at which inhibition is half-maximal.

This assay has as its target IGF-1R (Homo sapiens (Human), UniProt P08069). Briefly: Example B-1: IGF-1R Assay (PC3 cells, IGF1 stimulation, AlphaLISA). It counts as cell-based. The note with it: 200 ng/mL IGF1 stimulation, read-out: Biological Activity against IGF-1R IC50. The essentials:
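Readout is AlphaLISA signal from lysed PC3 cells, expressed as % inhibition versus vehicle and EC80 controls and banded by IC50. Before lysis, the cells were starved of serum for 2 h, exposed to 3× serially diluted compound for 2 h, and stimulated for 30 min with 200 ng/mL IGF1 (final).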
Background: In Alpha technology, singlet oxygen from a donor bead excites a nearby acceptor bead.

The structures appear in SMILES notation.

Sequence of IGF-1R (P08069 31-1367): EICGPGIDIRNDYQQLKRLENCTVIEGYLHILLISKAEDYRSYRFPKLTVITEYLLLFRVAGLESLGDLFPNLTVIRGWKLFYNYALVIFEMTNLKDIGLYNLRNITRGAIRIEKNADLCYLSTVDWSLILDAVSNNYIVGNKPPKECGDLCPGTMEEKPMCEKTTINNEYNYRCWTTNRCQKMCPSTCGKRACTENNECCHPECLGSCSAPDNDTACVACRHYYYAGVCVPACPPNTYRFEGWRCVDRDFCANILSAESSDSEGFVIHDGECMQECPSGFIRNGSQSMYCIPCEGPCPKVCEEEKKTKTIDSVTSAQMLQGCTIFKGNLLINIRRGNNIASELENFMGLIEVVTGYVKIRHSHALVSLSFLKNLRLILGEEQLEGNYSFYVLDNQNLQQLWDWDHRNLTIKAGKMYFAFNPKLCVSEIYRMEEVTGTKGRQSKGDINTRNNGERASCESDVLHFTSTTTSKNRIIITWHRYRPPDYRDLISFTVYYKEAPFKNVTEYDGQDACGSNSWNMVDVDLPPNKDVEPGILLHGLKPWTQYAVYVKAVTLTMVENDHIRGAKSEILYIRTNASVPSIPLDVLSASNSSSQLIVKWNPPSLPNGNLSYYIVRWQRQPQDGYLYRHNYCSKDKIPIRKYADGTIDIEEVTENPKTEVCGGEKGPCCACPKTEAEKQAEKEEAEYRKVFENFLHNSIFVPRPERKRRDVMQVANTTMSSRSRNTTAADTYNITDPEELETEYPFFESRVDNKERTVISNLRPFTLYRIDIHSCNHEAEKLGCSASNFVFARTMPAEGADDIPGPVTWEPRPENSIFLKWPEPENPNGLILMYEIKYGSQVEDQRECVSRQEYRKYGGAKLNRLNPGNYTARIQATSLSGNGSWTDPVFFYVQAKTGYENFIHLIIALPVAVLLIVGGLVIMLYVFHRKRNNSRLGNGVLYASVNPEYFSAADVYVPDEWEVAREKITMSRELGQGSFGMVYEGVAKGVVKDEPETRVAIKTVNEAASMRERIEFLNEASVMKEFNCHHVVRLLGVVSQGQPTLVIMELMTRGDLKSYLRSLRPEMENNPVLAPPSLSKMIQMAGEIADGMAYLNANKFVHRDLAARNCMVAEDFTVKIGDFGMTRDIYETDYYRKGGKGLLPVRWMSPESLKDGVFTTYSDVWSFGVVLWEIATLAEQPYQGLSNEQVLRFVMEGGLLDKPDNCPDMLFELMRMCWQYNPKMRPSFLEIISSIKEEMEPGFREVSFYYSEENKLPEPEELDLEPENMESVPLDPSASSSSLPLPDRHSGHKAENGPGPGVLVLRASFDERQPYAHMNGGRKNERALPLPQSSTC

Regarding `COc1cc(Nc2nccc(Nc3cnc4cc(F)c(F)cc4c3)n2)cnc1N1CC2CCC(C1)O2` [Compound 126, 4-(6,7-difluoro-3-quinolylamino)-2-{5-methoxy-6-(8-oxa-3-azabicyclo[3.2.1]oct-3-y1)-3-pyridylamino}pyrimidine], the IC50 fell in the range of 500 to 2000 nM.

As for `COc1cccc2cc(Nc3ccnc(Nc4ccc(OCCCN5CCOCC5)cc4)n3)cnc12` [Compound 417, 4-(8-methoxy-3-quinolylamino)-2-[p-(3-morpholinopropoxy)phenylamino]pyrimidine], the IC50 was in the range of 500 to 2000 nM.

With `COc1cc(Nc2nccc(Nc3cc4ccccc4nc3OC)n2)ccc1O[C@H]1C[C@H](N(C)C)C1` [Compound 340, 4-(2-methoxy-3-quinolylamino)-2-{3-methoxy-4-[(1r,3r)-3-(dimethylamino)cyclobutoxy]phenylamino}pyrimidine], the IC50 is at most 500 nM.

As to `COc1cc(Nc2nccc(Nc3cnc4c(c3)OCC(CN(C)C)O4)n2)ccc1O[C@H]1C[C@@H](N(C)C)C1` (some centres unmarked) [Compound 179, 4-{3-[(dimethylamino)methyl]-2,3-dihydro-1,4-dioxa-5-aza-7-naphthylamino}-2-{3-methoxy-4-[(1s,3s)-3-(dimethylamino)cyclobutoxy]phenylamino}pyrimidine], the IC50 was at most 500 nM.

For `COc1cc(Nc2nccc(Nc3cnc4ccccc4c3)c2F)ccc1O[C@H]1C[C@@H](N(C)C)C1` [Compound 264, 3-fluoro-2-{3-methoxy-4-[(1s,3s)-3-(dimethylamino)cyclobutoxy]phenylamino}-4-(3-quinolylamino)pyridine], the IC50 was above 10000 nM.

In the case of `Clc1ccc2ncc(Nc3ccnc(Nc4ccc(O[C@H]5CC[C@@H](N6CCOCC6)CC5)cc4)n3)cc2c1` [Compound 311, 4-(6-chloro-3-quinolylamino)-2-{p-[(1s,4s)-4-morpholinocyclohexyloxy]phenylamino}pyrimidine], the IC50 is at most 500 nM.

With `COc1cc(Nc2nccc(Nc3cnc4c(c3)OCCO4)n2)ccc1OCCCN1CCCCC1` [Compound 201, 4-(2,3-dihydro-1,4-dioxa-5-aza-7-naphthylamino)-2-[3-methoxy-4-(3-piperidinopropoxy)phenylamino]pyrimidine], the IC50 was at most 500 nM.

For the compound `COc1cc(Nc2nccc(Nc3cc4ccccc4nc3C(=O)O)n2)ccc1O[C@H]1C[C@@H](N(C)C)C1` [Compound 296, 3-(2-{3-methoxy-4-[(1s,3s)-3-(dimethylamino)cyclobutoxy]phenylamino}-4-pyrimidinylamino)-2-quinolinecarboxylic acid], the IC50 was above 10000 nM.

For the compound `COc1cc(Nc2nccc(Nc3cnc4cc(F)c(F)cc4c3)n2)ccc1N1CCC(C)(O)CC1` [Compound 155, 1-(4-((4-((6,7-difluoroquinolin-3-yl)amino)pyrimidin-2-yl)amino)-2-methoxyphenyl)-4-methylpiperidin-4-ol], the IC50 was at most 500 nM.

On to `COc1cc(Nc2nccc(Nc3cnc4cc(Br)ccc4c3)n2)ccc1O[C@H]1C[C@H](N(C)C)C1` [Compound 328, 4-(7-bromo-3-quinolylamino)-2-{3-methoxy-4-[(1r,3r)-3-(dimethylamino)cyclobutoxy]phenylamino}pyrimidine], for which the IC50 is at most 500 nM.

As for `COc1cc(Nc2nccc(Nc3cnc4c(c3)CCCO4)n2)ccc1O[C@H]1C[C@@H](N(C)C)C1` [Compound 365, 4-(3,4-dihydro-2H-1-oxa-8-azanaphth-6-ylamino)-2-{3-methoxy-4-[(1s,3s)-3-(dimethylamino)cyclobutoxy]phenylamino}pyrimidine], the IC50 was at most 500 nM.

On to `COc1cc(Nc2nccc(Nc3ccc4scnc4c3)n2)ccc1OCCCN1CCCCC1` [Compound 443, 4-(1,3-benzothiazol-5-ylamino)-2-[3-methoxy-4-(3-piperidinopropoxy)phenylamino] pyrimidine], for which the IC50 is at most 500 nM.

Turning to `O=S1(=O)CCN([C@H]2C[C@H](Oc3ccc(Nc4nccc(Nc5cnc6cc(Cl)ccc6c5)n4)cc3)C2)CC1` [Compound 350, 4-[(1r,3r)-3-{p-[4-(7-chloro-3-quinolylamino)-2-pyrimidinylamino]phenoxy}cyclobutyl]-1λ^6,4-thiazinane-1,1-dione], the IC50 lay within 2000 to 10000 nM.

As for `COc1cc(Nc2nccc(Nc3cnc4c(c3)CS(=O)(=O)CC4)n2)ccc1OCCCN1CCCCC1` [Compound 391, 3-{2-[3-methoxy-4-(3-piperidinopropoxy)phenylamino]-4-pyrimidinylamino}-5,6,7,8-tetrahydro-6H,6H-6λ^6-thia-1-azanaphthalene-6,6-dione], the 50% inhibitory concentration (IC50) lay within 2000 to 10000 nM.

Regarding `COc1cc(Nc2nccc(Nc3cnc4cc(Cl)cnc4c3)n2)ccc1O[C@H]1C[C@@H](N(C)C)C1` [Compound 278, 4-(7-chloro-1,5-diaza-3-naphthylamino)-2-{3-methoxy-4-[(1s,3s)-3-(dimethylamino)cyclobutoxy]phenylamino}pyrimidine], the IC50 is at most 500 nM.

Turning to `O=S1(=O)CCc2ncc(Nc3ccnc(Nc4ccc(OCCCN5CCOCC5)cc4)n3)cc2C1` [Compound 390, 3-{2-[p-(3-morpholinopropoxy)phenylamino]-4-pyrimidinylamino}-5,6,7,8-tetrahydro-6H,6H-6λ^6-thia-1-azanaphthalene-6,6-dione], the IC50 is 500 to 2000 nM.

With `COc1ccc2cc(Nc3ccnc(Nc4ccc(O[C@H]5C[C@@H](N6CCOCC6)C5)cc4)n3)cnc2c1` [Compound 352, 4-(7-methoxy-3-quinolylamino)-2-{p-[(1s,3s)-3-morpholinocyclobutoxy]phenylamino}pyrimidine], the IC50 is 2000 to 10000 nM.

Take `O=C1CN([C@H]2CC[C@@H](Oc3ccc(Nc4nccc(Nc5cnc6ccc(Cl)cc6c5)n4)cc3)CC2)CCN1` [Compound 308]: the IC50 was at most 500 nM.

In the case of `COc1cc(Nc2nccc(Nc3cc4cccc(F)c4[nH]c3=O)n2)cnc1N1CCS(=N)(=O)CC1` [Compound 240, 4-{5-[4-(8-fluoro-2-oxo-1,2-dihydro-3-quinolylamino)-2-pyrimidinylamino]-3-methoxy-2-pyridyl}-1-imino-1λ^6,4-thiazinan-1-one], the IC50 was above 10000 nM.

Turning to `FC(F)(F)c1cccc2cc(Nc3ccnc(Nc4ccc(OCCCN5CCOCC5)cc4)n3)cnc12` [Compound 415, 2-[p-(3-morpholinopropoxy)phenylamino]-4-[8-(trifluoromethyl)-3-quinolylamino]pyrimidine], the IC50 is 2000 to 10000 nM.

Take `COc1ccc2cc(Nc3ccnc(Nc4ccc(O[C@H]5C[C@H](N6CCCCC6)C5)cc4)n3)cnc2c1` [Compound 354, 4-(7-methoxy-3-quinolylamino)-2-{p-[(1r,3r)-3-piperidinocyclobutoxy]phenylamino}pyrimidine]: the IC50 is 2000 to 10000 nM.

On to `COc1cc(Nc2nccc(Nc3cnc4ccc(C)cc4c3)n2)ccc1O[C@H]1C[C@H](N(C)C)C1` [Compound 335, 2-{3-methoxy-4-[(1r,3r)-3-(dimethylamino)cyclobutoxy]phenylamino}-4-(6-methyl-3-quinolylamino)pyrimidine], for which the IC50 is at most 500 nM.

Regarding `COc1cc(Nc2nccc(Nc3cnc4c(=O)n(C)ncc4c3)n2)ccc1O[C@H]1C[C@@H](N(C)C)C1` [Compound 304, 3-(2-{3-methoxy-4-[(1s,3s)-3-(dimethylamino)cyclobutoxy]phenylamino}-4-pyrimidinylamino)-7-methyl-1,6,7-triaza-8(7H)-naphthalenone], the IC50 was above 10000 nM.
